Laboratory results reported in ChEMBL document CHEMBL3045591, “Imidazole as an anti-epileptic: an overview” (Med Chem Res, 2012).

Columns and labels:
[1] = Toxicity in po dosed Rattus norvegicus albino (rat); format: organism-based; settings: in vivo
Mus musculus [2] = organism: Mus musculus; test: Anticonvulsant activity in Mus musculus (mouse) assessed as protection against metrazole-induced seizures; format: functional
Mus musculus [3] = organism: Mus musculus; test: Anticonvulsant activity in acute seizure Mus musculus (mouse) model assessed as protection against maximal electroshock-induced seizures; format: functional
Mus musculus [4] = organism: Mus musculus; test: Anticonvulsant activity in Mus musculus (mouse) assessed as protection against maximal electroshock-induced seizures; format: functional
Mus musculus [5] = test: Anticonvulsant activity in Mus musculus (mouse) assessed protection against subcutaneous pentylenetetrazole-induced seizures; format: functional
Mus musculus [6] = organism: Mus musculus; test: Anticonvulsant activity against Mus musculus DBA/2 (mouse) assessed as protection against sound-induced seizure; format: functional; settings: read-out: MED
Mus musculus [7] = test: Anticonvulsant activity in Mus musculus (mouse) assessed as protection against maximal electroshock-induced seizures compound co-administered with losartan 50 mg/kg, ip; format: functional; settings: route intraperitoneal

Work on `COc1cccc(-c2nc(-c3ccccc3)c(-c3ccccc3)[nH]2)c1` yielded an MTD [1] of at most 5000 mg/kg.
`Cc1ncc(C(=O)Oc2ccccc2)n1C(C)c1ccccc1.O=[N+]([O-])O` (stereo not given) gave an ED50 (Mus musculus [2]) of 68 mg/kg.
`CCCOC(=O)NC1=NCC(c2ccccc2F)N1C` (stereo not given) showed an ED50 (Mus musculus [3]) of 23 mg/kg.
Molecule `CC(C)OC(=O)NC1=NCC(c2ccccc2F)N1C` (stereo not given) has an ED50 (Mus musculus [3]) of 23 mg/kg.
For `Clc1ccc(-c2nc(Cn3ccnc3)cs2)cc1`, the Activity (Mus musculus [4]) was 33% and the Activity (Mus musculus [5]) was 33%.
With `COC(=O)c1cnc(C)n1C(C)c1ccccc1.O=[N+]([O-])O` (stereo not given) the ED50 (Mus musculus [2]) was 68 mg/kg.
In the case of `O=[N+]([O-])c1cc2nc(O)c(O)nc2nc1-n1ccnc1`, the minimal effective dose (Mus musculus [6]) is reported as 10 mg/kg.
In the case of `CCCC(CCC)C(=O)O` [VALPROIC ACID], the ED50 (Mus musculus [4]; Mus musculus) is reported as 250 mg/kg and the ED50 (Mus musculus [7]) is reported as 195 mg/kg.
